Results reported in publication PMC6321071, “Chenodeoxycholic Acid from Bile Inhibits Influenza A Virus Replication via Blocking Nuclear Export of Viral Ribonucleoprotein Complexes” (Molecules, 2018).
Counter-ions that a name gives are not always drawn. Like-named read-outs stand apart in the source and are kept apart here.

Key:
[1] = system: PR8 (H1N1); type: cell-based, Influenza A virus A/Puerto Rico/8/34 (PR8)
[2] = system: H5N1; assay: microbe, parasite or virus in culture; type: cell-based, Influenza A virus A/Duck/Guangdong/99 (H5N1); conditions: Influenza A virus, H5N1, MDCK, read-out: IC50 (H5N1)
[3] = MTT cytotoxicity assay on A549 cells; conditions: human
[4] = system: A549 cells; assay: MTT cytotoxicity assay on A549 cells; conditions: 48 or 72 h treatment, MTT
[5] = system: PR8 (H1N1); assay: microbe, parasite or virus in culture; type: cell-based, Influenza A virus A/Puerto Rico/8/34 (PR8); conditions: Influenza A virus, A549, read-out: IC50 (PR8 (H1N1))
[6] = system: H9N2; assay: microbe, parasite or virus in culture; type: cell-based, Influenza A virus A/Chicken/Guangdong/96 (H9N2); conditions: Influenza A virus, H9N2, MDCK, read-out: IC50 (H9N2)
[7] = system: H5N1; assay: microbe, parasite or virus in culture; type: cell-based, Influenza A virus A/Duck/Guangdong/99 (H5N1); conditions: Influenza A virus, H5N1, A549, read-out: IC50 (H5N1)
[8] = system: PR8 (H1N1); assay: microbe, parasite or virus in culture; type: cell-based, Influenza A virus A/Puerto Rico/8/34 (PR8); conditions: Influenza A virus, MDCK, read-out: IC50 (PR8 (H1N1))
[9] = system: H5N1; type: cell-based, Influenza A virus A/Duck/Guangdong/99 (H5N1); conditions: 60 μM
[10] = system: H5N1 virus; type: cell-based, Influenza A virus A/Duck/Guangdong/99 (H5N1)
[11] = system: H9N2 virus; type: cell-based, Influenza A virus A/Chicken/Guangdong/96 (H9N2)
[12] = system: nuclear export of viral RNP complexes (H5N1); type: cell-based, Influenza A virus A/Duck/Guangdong/99 (H5N1)
[13] = system: influenza A virus (H5N1, H9N2, H1N1); assay: microbe, parasite or virus in culture; type: cell-based; conditions: for IC50: Influenza A virus, read-out: IC50 range over three IAV subtypes
[14] = MTT cytotoxicity assay on MDCK cells; conditions: dog
[15] = system: MDCK cells; assay: MTT cytotoxicity assay on MDCK cells; conditions: 48 or 72 h treatment, MTT
[16] = system: H5N1; type: cell-based, Influenza A virus A/Duck/Guangdong/99 (H5N1)
[17] = system: H9N2; assay: microbe, parasite or virus in culture; type: cell-based, Influenza A virus A/Chicken/Guangdong/96 (H9N2); conditions: Influenza A virus, H9N2, A549, read-out: IC50 (H9N2)

| Compound | IC50 [2] | CC50 [3] | IC50 [5] | IC50 [6] | IC50 [7] | IC50 [8] | nuclear export of vRNP complexes [12] | IC50 [13] | CC50 [14] | IC50 [17] | further results |
| --- | --- | --- | --- | --- | --- | --- | --- | --- | --- | --- | --- |
| C[C@H](CCC(=O)O)[C@H]1CC[C@H]2[C@@H]3[C@H](O)C[C@@H]4C[C@H](O)CC[C@]4(C)[C@H]3CC[C@]12C [CDCA, Chenodeoxycholic acid] | 6.5 ± 0.5 µM | 372 ± 41.2 µM | 7.7 ± 0.7 µM | 5.5 ± 0.7 µM | 8.2 ± 1.2 µM | 7.2 ± 0.7 µM | inhibited | 5.5 to 11.5 µM | 121 ± 9.7 µM | 11.5 ± 1.7 µM | anti-IAV activity, CPE (PR8 (H1N1)) [1]: reduced CPE; concentrations with no obvious cytotoxicity [4]: ≤ 125 µM; decrease of progeny virus yield, post-treatment [9]: more than 90%; progeny virus yield and viral NP production, pretreatment [9]: did not reduce; virus replication, cotreatment [9]: did not affect; H5N1 replication (CPE, NP expression) [10]: significantly inhibited; anti-IAV activity, CPE (H9N2) [11]: reduced CPE; early NP localization events (cytosol to nucleus translocation) [12]: did not affect; progeny virus titers [13]: significantly inhibited; concentrations with no obvious cytotoxicity [15]: ≤ 62.5 µM; inhibition of virus replication (NP expression), added 4–6 and 6–8 hpi ([16]; 60 μM): more significant inhibition |
| C[C@H](CCC(=O)O)[C@H]1CC[C@H]2[C@@H]3C[C@H](O)[C@@H]4C[C@H](O)CC[C@]4(C)[C@H]3CC[C@]12C [HDCA, hyodeoxycholic acid] | 41.2 ± 3.5 µM | 486 ± 55 µM | 73.7 ± 6.7 µM | 31 ± 2.2 µM | 60 ± 5.5 µM | 43.5 ± 2.7 µM | – | 31 to 73.7 µM | 414 ± 33.7 µM | 53 ± 6.5 µM | – |
| CCC(=C/[C@H](C)C/C=C/C(C)=C/[C@@H](C)C(=O)[C@@H](C)[C@H](O)[C@@H](C)C/C(C)=C/C(=O)O)/C=C/[C@@H]1OC(=O)C=C[C@@H]1C [Leptomycin B (LMB), Leptomycin B] | – | – | – | – | – | – | efficiently blocked | – | – | – | – |
| C[C@H](CCC(=O)O)[C@H]1CC[C@H]2[C@@H]3[C@@H](O)C[C@@H]4C[C@H](O)CC[C@]4(C)[C@H]3CC[C@]12C [UDCA, ursodeoxycholic acid] | 47.2 ± 3.2 µM | 815 ± 49.2 µM | 43 ± 4.5 µM | 36.7 ± 3.5 µM | 34.2 ± 3.7 µM | 56.2 ± 5 µM | – | 31 to 73.7 µM | 596 ± 53 µM | 58.7 ± 4.5 µM | – |
| NC(=O)c1ncn([C@@H]2O[C@H](CO)[C@@H](O)[C@H]2O)n1 [ribavirin, Ribavirin hydrochloride] | – | – | – | – | – | – | did not block | – | – | – | inhibition of H5N1 infection (CPE, NP expression) ([10]; 90 μM): significant inhibition; reduction of progeny virus production relative to 60 μM CDCA ([13]; 90 μM): slightly more potent; IAV inhibition (NP expression), added 6–8 hpi [16]: no inhibition; IAV inhibition (NP expression), added before 6 hpi [16]: much better IAV inhibition |
